Laboratory results taken from patent US20240139211A1, “METHODS AND COMPOSITIONS FOR TREATING AMYOTROPHIC LATERAL SCLEROSIS” (Amylyx Pharmaceuticals, Inc., priority 2022, published 2024).
Where two headings read alike, the source gives them in different places.

Assays:
BCRP = target: T1, BCRP (Homo sapiens, UniProt Q9UNQ0); experiment: in vitro; details: Caco-2 cells, probe 3H-estrone-3-sulfate
T1 sequence (Q9UNQ0 1-655): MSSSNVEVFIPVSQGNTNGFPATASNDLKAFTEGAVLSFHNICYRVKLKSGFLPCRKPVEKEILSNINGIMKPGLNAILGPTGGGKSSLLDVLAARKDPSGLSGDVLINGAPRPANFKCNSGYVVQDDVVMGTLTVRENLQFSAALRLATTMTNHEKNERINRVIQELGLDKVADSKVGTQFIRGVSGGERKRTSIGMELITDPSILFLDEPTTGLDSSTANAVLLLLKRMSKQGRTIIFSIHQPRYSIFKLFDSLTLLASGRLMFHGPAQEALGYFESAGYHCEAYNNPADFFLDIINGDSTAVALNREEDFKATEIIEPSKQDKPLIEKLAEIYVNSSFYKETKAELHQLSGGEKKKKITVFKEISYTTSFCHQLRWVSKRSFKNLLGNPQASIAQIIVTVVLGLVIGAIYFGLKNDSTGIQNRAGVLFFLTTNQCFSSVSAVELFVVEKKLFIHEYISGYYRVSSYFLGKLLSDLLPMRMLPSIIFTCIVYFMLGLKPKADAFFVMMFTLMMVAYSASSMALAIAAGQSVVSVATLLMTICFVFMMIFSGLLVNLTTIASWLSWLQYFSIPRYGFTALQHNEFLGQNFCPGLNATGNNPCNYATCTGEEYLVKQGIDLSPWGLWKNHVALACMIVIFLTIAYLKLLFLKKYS

OATP1B3 = OATP1B3 (Homo sapiens, UniProt Q9NPD5); experiment: in vitro
CYP2B6 mRNA = experiment: in vitro; details: human
CYP3A4/5 = CYP3A4/5 enzyme activity induction in hepatocyte cultures
[1] = Chemical stability in HBSSg_7.4 and HBSS_8.5; type: physicochemical; details: for Chemical stability in the tested matrices: 0.5 μM, 37° C., HBSSg_7.4 and HBSS_8.5
Procedure: At pre-determined time points, an equal volume of acetonitrile with internal standard was added to each vial, and the mixture was placed at 4° C. until the end of the assay. The peak areas of the test article and IS of each sample were determined by LC-MS/MS, and the ratios of the peak areas (analyte:IS) were calculated.

in vivo = details: male, CD (Sprague-Dawley) IGS, rat, po, 840 mg/kg
[2] = Relevant plasma concentrations for in vitro transporter assessment; type: in vivo; details: for Plasma Cmax (total [I]1): component of AMX0035, highest oral dose TUDCA 1000 mg, PB 3000 mg; for Unbound [I]m, max: projected unbound Iin; for Unbound Cmax (Unbound [I]1): projected, from total Cmax and plasma protein binding
[3] = male, CD (Sprague-Dawley) IGS, rat, in vivo
[4] = target: CYPs in human liver microsomes (HLM) (Homo sapiens, UniProt P11712); details: 5 min
[5] = target: CYPs in human liver microsomes (HLM) (Homo sapiens, UniProt P10635); details: 5 min
[6] = test system: CYPs in human liver microsomes (HLM)
[7] = target: T2, CYPs in human liver microsomes (HLM) (Homo sapiens, UniProt P20813); details: 1 h
T2 sequence (P20813 1-491): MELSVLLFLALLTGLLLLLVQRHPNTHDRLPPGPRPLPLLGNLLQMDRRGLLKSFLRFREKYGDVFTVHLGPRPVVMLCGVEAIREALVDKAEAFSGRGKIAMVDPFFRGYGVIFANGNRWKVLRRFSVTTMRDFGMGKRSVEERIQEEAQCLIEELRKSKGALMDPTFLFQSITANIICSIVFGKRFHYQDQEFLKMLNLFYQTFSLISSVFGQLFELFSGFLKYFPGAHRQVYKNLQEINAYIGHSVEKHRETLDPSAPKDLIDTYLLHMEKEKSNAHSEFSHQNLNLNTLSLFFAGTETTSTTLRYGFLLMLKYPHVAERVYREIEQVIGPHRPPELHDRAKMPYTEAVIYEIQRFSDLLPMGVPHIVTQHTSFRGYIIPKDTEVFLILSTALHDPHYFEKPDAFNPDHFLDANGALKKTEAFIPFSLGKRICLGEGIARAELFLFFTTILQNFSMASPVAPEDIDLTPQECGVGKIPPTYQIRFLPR

human plasma protein = experiment: Human plasma protein binding; type: in vitro ADME
OCT2 = target: T3, OCT2 (Homo sapiens, UniProt O15244); experiment: OCT2 inhibition, MPP+ uptake in transfected HEK cells; details: read-out: Estimated IC50 toward OCT2; TUDCA and PB present simultaneously
T3 sequence (O15244 1-555): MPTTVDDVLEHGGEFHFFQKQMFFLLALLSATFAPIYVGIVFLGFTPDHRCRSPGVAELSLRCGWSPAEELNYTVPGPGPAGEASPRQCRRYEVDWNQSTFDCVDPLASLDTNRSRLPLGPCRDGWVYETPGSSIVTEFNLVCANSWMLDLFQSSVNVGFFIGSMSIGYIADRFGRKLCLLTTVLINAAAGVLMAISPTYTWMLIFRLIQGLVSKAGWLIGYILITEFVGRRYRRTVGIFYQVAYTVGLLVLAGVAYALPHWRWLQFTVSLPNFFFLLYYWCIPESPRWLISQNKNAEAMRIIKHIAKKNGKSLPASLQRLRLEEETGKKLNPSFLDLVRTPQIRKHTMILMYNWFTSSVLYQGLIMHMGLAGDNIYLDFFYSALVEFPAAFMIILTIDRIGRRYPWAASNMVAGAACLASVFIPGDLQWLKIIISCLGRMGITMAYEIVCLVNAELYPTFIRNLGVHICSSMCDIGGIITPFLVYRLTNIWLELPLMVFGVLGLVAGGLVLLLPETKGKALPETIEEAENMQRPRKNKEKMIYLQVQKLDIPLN

[8] = HBSSg_7.4, Overnight (~1020-[…])
[9] = HBSSg_8.5, Overnight (~1020-[…])

CYPs in human liver microsomes (HLM) (Homo sapiens, UniProt P10635), sequence (P10635 whole entry): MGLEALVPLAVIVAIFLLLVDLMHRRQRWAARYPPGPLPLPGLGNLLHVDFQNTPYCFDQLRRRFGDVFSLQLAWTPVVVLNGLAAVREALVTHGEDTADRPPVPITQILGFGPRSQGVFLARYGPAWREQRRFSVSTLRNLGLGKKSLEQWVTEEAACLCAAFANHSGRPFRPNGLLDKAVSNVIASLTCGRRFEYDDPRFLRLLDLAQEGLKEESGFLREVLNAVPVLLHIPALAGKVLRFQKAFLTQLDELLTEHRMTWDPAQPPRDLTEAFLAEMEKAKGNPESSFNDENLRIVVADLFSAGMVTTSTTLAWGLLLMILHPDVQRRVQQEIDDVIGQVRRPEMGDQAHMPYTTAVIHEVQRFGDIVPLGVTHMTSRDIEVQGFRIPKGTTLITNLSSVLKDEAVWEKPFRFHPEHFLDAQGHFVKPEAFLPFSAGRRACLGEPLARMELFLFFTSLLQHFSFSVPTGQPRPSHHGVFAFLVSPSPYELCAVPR
OATP1B3, sequence (Q9NPD5 whole entry): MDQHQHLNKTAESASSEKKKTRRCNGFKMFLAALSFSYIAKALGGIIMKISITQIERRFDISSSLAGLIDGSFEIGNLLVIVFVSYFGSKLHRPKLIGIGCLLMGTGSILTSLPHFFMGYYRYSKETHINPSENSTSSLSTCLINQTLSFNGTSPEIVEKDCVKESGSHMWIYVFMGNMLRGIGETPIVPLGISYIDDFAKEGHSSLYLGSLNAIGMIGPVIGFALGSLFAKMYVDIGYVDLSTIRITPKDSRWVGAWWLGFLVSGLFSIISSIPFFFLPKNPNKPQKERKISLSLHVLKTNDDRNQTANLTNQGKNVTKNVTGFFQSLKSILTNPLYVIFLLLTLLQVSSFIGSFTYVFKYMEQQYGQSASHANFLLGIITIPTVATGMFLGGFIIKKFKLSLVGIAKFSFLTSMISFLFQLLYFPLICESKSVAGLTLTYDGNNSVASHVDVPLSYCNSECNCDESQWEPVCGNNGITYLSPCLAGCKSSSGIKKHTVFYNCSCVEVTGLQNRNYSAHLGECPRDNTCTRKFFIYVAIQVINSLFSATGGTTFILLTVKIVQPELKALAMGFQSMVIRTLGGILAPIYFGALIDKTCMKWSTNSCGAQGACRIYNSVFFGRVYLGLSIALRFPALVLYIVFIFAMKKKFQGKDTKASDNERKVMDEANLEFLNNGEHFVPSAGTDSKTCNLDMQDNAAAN
CYPs in human liver microsomes (HLM) (Homo sapiens, UniProt P11712), sequence (P11712 whole entry): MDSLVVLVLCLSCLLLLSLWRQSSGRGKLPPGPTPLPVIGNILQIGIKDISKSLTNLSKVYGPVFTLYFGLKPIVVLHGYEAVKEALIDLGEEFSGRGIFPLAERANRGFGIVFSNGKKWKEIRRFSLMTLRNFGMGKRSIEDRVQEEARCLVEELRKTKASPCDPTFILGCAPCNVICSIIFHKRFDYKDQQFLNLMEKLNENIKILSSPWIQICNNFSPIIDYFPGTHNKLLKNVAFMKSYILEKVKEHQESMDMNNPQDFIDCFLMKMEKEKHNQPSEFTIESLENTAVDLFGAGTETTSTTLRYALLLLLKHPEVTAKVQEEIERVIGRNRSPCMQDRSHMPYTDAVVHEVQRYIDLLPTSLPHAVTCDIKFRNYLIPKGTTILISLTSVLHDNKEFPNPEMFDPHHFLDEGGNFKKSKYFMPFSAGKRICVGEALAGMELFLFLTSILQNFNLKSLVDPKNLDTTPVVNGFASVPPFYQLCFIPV

| Molecule | Chemical stability in the tested matrices [1] | Percent of the 0-minute value ([1]; HBSSg_7.4, 0 minutes) [%] | Percent of the 0-minute value ([1]; HBSSg_7.4, 120 minutes) [%] | Percent of the 0-minute value [1, 8] [%] | Percent of the 0-minute value ([1]; HBSSg_8.5, 0 minutes) [%] | Percent of the 0-minute value ([1]; HBSSg_8.5, 120 minutes) [%] | Percent of the 0-minute value [1, 9] [%] | Plasma Cmax (total [I]1) [2] [µM] | Unbound [I]m, max [2] [µM] | Unbound Cmax (Unbound [I]1) [2] [µM] | other results |
| --- | --- | --- | --- | --- | --- | --- | --- | --- | --- | --- | --- |
| C[C@H](CCC(=O)NCC(=O)O)[C@H]1CC[C@H]2[C@@H]3[C@@H](O)C[C@@H]4C[C@H](O)CC[C@]4(C)[C@H]3CC[C@]12C [Glycoursodeoxycholic acid, glycoursodeoxycholic acid] | – | – | – | – | – | – | – | – | – | – | potency estimated from few doses (BCRP): > 100 µM; potency estimated from few doses (OATP1B3): < 100 µM; EC50 at 72 h (CYP2B6 mRNA; hepatocyte cultures): 1.74 µM; fold induction at 72 h (CYP2B6 mRNA; hepatocyte cultures): 5.83; Maximum fold induction of CYP3A4/5 activity (CYP3A4/5; Donor 1): 1.34 fold; Maximum fold induction of CYP3A4/5 activity (CYP3A4/5; Donor 2): 1.98 fold; Maximum fold induction of CYP3A4/5 activity (CYP3A4/5; Donor 3): 2.70 fold |
| O=C(O)CCCc1ccccc1 [PB, sodium phenylbutyrate] | appeared to be stable | 100 | 99.3 | 105 | 100 | 79.4 | 98.6 | 826 | 326 | 148 | Tmax (in vivo): 15 to 30 min; Time through which plasma concentrations remained quantifiable [3]: 4 h |
| O=C(O)Cc1ccccc1 [Phenylacetic acid, phenylacetic acid] | – | – | – | – | – | – | – | – | – | – | EC50 at 72 h (CYP2B6 mRNA): 19.5 µM |
| tauroursodeoxycholic acid [TUDCA] | appeared to be stable | 100 | 101 | 95.3 | 100 | 90.8 | 96.5 | 108 | 3.48 | 1.62 | % remaining of TA in HLM [4]: 102%; % remaining of TA in HLM [5]: 101%; % remaining of TA in HLM ([6]; 5 min): 103%; % remaining of TA in HLM ([6]; 1 h): 105%; % remaining of TA in HLM [7]: 102%; Human Plasma Protein Binding (%) (human plasma protein): 98.5%; IC50 (OCT2): > 162 µM |
